Assay results as given in patent US9480655B2, “Solid pharmaceutical dosage form of dolutegravir” (ratiopharm GmbH, priority 2013, dated 2016).
Counter-ions that a name gives are not always drawn. Like-named read-outs stand apart in the source and are kept apart here. Blank lines part the entries; values can stand above or below the molecule they belong to.

Test: Solubility of dolutegravir and its salts in aqueous media
Assay type: physicochemical
Description: At an increasing pH, for example to pH 6.8 in 50 mM KH2PO4 the solubility of the sodium salt of dolutegravir slightly increases but the salt still remains very slightly soluble (1-0.1 mg/ml), only. Due to this very low solubility of the active ingredient the tablets known from WO2006/116764 are of little practical use because the active ingredient will hardly dissolve in the intestine resulting in a low bioavailability.
Dolutegravir may be present in the solid pharmaceutical dosage form in its non-salt form or any pharmaceutically acceptable salt or solvate thereof. Suitable pharmaceutically acceptable salts are known to the skilled person. For example, dolutegravir may be present as alkali metal salt, such as dolutegravir sodium or dolutegravir potassium. The potassium salt being preferred.

- solubility (medium not stated): practically insoluble
Structure (SMILES): C[C@@H]1CCO[C@H]2Cn3cc(C(=O)NCc4ccc(F)cc4F)c(=O)c(O)c3C(=O)N12 [Dolutegravir, (4R,12aS)-N-(2,4-difluorobenzyl)-7-hydroxy-4-methyl-6,8-dioxo-3,4,6,8,12,12a-hexahydro-2H-pyrido[1′,2′:4,5]pyrazino[2,1-b][1,3]oxazine-9-carboxamide]

- solubility relative to the sodium salt: more soluble than the sodium salt
Structure (SMILES): C[C@@H]1CCO[C@H]2Cn3cc(C(=O)NCc4ccc(F)cc4F)c(=O)c(O)c3C(=O)N12 [potassium salt]

- solubility (aqueous buffer, pH 6.8 in 50 mM KH2PO4, read-out: solubility): 100 to 1000 µg/mL
- solubility (simulated gastric fluid, 0.1 N HCl (pH 1.2), read-out: solubility): < 100 µg/mL
Structure (SMILES): C[C@@H]1CCO[C@H]2Cn3cc(C(=O)NCc4ccc(F)cc4F)c(=O)c(O)c3C(=O)N12 [sodium salt of dolutegravir]
